Experimental data taken from patent US12673951B2, “Substituted pyrazoloquinazolinone compounds and application thereof” (IMPACT THERAPEUTICS (SHANGHAI), INC, priority 2019, dated 2026).
Like-named read-outs stand apart in the source and are kept apart here.

Tests used:
[1] = biological target: T1, ATM enzyme (Homo sapiens, UniProt Q13315); assay: ATM kinase assay (HTRF); type: biochemical; conditions: for inhibition at 1 µM / inhibition at 10 µM / inhibition at 100 µM / inhibition at 0.1 µM: 0.5 h, read-out: Inh (%) ATM kinase inhibition rate; for inhibition at 0.1 µM: C 0.1 μm
T1 construct: purchased Eurofins 14-933
T1 sequence (Q13315 whole entry): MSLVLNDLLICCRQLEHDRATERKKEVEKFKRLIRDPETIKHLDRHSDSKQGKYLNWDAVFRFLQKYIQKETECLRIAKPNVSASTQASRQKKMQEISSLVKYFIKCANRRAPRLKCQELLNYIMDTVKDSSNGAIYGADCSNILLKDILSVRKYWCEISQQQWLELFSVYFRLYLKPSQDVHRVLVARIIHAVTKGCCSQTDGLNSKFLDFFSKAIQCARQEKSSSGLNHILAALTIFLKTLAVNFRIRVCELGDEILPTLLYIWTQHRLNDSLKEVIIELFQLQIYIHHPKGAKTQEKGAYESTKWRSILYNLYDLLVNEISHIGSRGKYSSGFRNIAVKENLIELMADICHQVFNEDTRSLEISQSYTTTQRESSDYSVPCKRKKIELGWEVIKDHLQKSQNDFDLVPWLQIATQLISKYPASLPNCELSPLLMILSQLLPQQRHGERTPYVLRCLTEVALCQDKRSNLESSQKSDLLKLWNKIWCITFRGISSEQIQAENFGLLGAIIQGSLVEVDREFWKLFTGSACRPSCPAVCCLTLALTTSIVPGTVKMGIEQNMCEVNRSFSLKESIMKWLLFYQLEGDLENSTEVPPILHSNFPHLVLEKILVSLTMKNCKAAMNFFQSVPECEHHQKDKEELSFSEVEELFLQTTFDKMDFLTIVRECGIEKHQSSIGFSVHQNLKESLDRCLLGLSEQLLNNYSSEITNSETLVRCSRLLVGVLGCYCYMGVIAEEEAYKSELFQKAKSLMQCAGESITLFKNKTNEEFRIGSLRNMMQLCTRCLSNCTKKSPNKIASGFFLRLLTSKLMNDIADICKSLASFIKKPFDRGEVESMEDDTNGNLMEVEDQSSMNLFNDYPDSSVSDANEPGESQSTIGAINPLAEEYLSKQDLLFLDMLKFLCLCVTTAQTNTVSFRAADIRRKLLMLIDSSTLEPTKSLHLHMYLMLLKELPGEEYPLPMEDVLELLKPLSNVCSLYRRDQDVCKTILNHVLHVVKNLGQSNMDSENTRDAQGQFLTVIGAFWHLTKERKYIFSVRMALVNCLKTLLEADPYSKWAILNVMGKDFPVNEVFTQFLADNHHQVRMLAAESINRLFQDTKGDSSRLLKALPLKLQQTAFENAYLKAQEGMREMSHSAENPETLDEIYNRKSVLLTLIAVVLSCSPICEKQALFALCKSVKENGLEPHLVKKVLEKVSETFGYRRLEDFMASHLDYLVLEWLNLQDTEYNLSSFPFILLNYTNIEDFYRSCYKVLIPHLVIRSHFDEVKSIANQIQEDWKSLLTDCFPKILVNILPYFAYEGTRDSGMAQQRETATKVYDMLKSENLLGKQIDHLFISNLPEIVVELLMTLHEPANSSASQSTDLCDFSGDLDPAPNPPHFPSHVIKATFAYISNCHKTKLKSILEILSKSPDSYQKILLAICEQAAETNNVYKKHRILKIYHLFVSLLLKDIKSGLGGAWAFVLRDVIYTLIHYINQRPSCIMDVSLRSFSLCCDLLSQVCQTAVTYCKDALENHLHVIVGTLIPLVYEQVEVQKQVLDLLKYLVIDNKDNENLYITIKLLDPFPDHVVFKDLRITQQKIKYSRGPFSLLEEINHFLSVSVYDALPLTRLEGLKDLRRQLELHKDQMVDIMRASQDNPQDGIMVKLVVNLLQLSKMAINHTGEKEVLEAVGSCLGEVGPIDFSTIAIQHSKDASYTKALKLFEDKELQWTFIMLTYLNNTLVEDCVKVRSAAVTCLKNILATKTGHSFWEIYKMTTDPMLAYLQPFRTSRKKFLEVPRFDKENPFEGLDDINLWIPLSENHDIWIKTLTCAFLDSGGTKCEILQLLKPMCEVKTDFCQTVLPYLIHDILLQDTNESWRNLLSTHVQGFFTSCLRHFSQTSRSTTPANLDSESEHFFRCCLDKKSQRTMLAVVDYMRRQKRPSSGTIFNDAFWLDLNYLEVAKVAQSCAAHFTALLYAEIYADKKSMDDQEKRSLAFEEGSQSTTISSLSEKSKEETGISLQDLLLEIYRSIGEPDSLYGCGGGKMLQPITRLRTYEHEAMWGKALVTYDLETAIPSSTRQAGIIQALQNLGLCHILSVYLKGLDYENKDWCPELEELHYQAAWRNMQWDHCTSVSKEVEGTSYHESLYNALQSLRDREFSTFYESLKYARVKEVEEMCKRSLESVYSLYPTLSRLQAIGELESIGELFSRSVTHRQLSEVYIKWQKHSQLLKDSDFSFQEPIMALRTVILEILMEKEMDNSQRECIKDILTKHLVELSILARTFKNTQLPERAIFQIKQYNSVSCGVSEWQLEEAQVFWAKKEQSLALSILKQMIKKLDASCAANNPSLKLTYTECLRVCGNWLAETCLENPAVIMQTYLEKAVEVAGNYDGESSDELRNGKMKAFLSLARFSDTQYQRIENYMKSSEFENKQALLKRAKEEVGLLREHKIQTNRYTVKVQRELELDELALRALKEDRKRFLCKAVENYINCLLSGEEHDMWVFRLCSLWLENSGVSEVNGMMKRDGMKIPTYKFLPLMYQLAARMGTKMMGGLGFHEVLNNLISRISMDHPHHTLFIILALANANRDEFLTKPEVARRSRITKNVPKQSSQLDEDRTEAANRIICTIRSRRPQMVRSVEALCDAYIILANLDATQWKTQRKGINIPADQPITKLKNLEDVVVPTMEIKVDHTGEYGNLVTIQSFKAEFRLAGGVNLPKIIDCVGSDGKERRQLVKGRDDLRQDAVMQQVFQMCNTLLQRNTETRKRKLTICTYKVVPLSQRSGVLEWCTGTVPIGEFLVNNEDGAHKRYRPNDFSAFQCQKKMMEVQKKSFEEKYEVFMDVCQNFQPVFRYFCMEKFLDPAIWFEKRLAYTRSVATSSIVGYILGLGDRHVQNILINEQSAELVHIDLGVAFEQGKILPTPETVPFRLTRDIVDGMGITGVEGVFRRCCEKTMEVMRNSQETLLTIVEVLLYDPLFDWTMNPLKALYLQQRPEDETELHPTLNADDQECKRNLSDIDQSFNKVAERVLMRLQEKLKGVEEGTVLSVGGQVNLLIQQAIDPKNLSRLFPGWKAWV
Experimental: The mixture was centrifuged at 1000 rpm for 1 minute, and reacted at room temperature away from light for 30 minutes. Then 5 μL of EDTA stop solution (250 mM) was added to stop the reaction. After 5 μL of detection mixture (Anti-phospho-p53 (ser15)-K (Cisbio, #61P08KAE, 0.084 ng/μL) and Anti-GST-d2 (Cisbio, #61GSTDLA, 5.00 ng/μL)) was finally added to each well, then incubate the plate overnight at room temperature.
Relative fluorescence ratio was calculated: Ratio665 nm/615 nm-Ratiobackground, and inhibition rate %=(1−(relative fluorescence ratio of test compound well−relative fluorescence ratio of positive control well)/(relative fluorescence ratio of negative control well−relative fluorescence ratio of positive control well))×100 was calculated. Data were analyzed using GraphPad Prism6.0, and fitted using the curve equation: Y=Bottom+(Top−Bottom)/(1+10^((Log IC50−X)×HillSlope)) and IC50 values were calculated.

[2] = test system: human colon cancer cell SW620; assay: MTT assay, growth of SW620 cells, compounds combined with CPT-11; type: cell-based; conditions: read-out: IC50, growth of SW620 combined with CPT-11
Experimental: The cells were seeded into 96-well cell culture plate with appropriate cell density and incubated overnight in a 37° C. 5% CO2 incubator. […] 5 μL of each concentration was added to 120 μL of medium (25 times diluted) and mixed by shaking. […] After removing the original solution, 100 μL of fresh serum-free DMEM medium containing MTT (0.5 mg/mL) was added to each well, the culture was continued. […] GraphPad Prism 6.0 was used to analyze the data. The inhibitory activity of compounds on cell proliferation was plotted based on cell viability and compound concentration.

[3] = test system: human breast cancer cell MDA-MB-468; assay: MTT assay, growth of MDA-MB-468 cells; type: cell-based; conditions: read-out: IC50, growth of MDA-MB-468
Experimental: The cells were seeded into 96-well cell culture plate with appropriate cell density and incubated overnight in a 37° C. 5% CO2 incubator. […] 5 μL of each concentration was added to 120 μL of medium (25 times diluted) and mixed by shaking. The overnight cells were taken and the culture medium was removed, 195 μL of fresh medium was added to each well, and 5 μL of diluted medium containing the corresponding concentration of the tested sample was added, respectively, and the culture plate was then placed in the 5% CO2 cell culture incubator at 37° C. for 7 days (On the fourth day, the medium containing drugs was removed and fresh medium containing drugs was added for continuous cultivation.). After removing the original solution, 100 μL of fresh serum-free DMEM medium containing MTT (0.5 mg/mL) was added to each well, the culture was continued. […] GraphPad Prism 6.0 was used to analyze the data. The inhibitory activity of compounds on cell proliferation was plotted based on cell viability and compound concentration.

[4] = Homo sapiens, SW-620, 120 h, SW620 cells, medium containing 205 nM CPT-11, 5 days, MTT
[5] = Homo sapiens, 168 h, MDA-MB-468 cells, 7 days, MTT
[6] = Homo sapiens, MDA-MB-468, 168 h

| SMILES | inhibition at 1 µM ([1]; C 1 μm) | inhibition at 10 µM ([1]; C 10 μm) | IC50 [2, 4] | IC50 [3, 5] | inhibition at 0.1 µM [1] | IC50 ([2]; Homo sapiens, SW-620, 120 h) | IC50 [3, 6] | further results |
| --- | --- | --- | --- | --- | --- | --- | --- | --- |
| CN(C)CCCOc1ccc(-c2ccc3ncc4c(c3c2)n(C2CCOCC2)c(=O)n4C)cn1 [AZD0156, reference compound] | – | – | – | – | – | – | – | Inh (%) ATM kinase inhibition rate ([1]; C 1 μm): 90%; Inh (%) ATM kinase inhibition rate ([1]; C 10 μm): 95%; Inh (%) ATM kinase inhibition rate ([1]; C 100 μm): 100%; IC50 ([2]; SW620 cells, medium containing 205 nM CPT-11, 5 days, MTT): 9.77 nM; IC50 ([3]; MDA-MB-468 cells, 7 days, MTT): 9.87 nM |
| CN(C)CCCOc1ccc(-c2ccc3ncn4[nH]c(=O)c(C5CCOCC5)c4c3c2)cn1 [Example 1, 9-(6-(3-(dimethylamino)propoxy)pyridin-3-yl)-1-(tetrahydro-2H-pyran-4-yl)pyrazolo[1,5-c]quinazolin-2(3H)-one] | 0% | 23% | > 1000 nM | 231 nM | – | – | – | inhibition at 100 µM ([1]; C 100 μm): 69% |
| CN(C)CCCOc1ccc(-c2ccc3ncn4c(c(C5CCOCC5)c(=O)n4C)c3c2)cn1 [Example 2, 9-(6-(3-(dimethylamino)propoxy)pyridin-3-yl)-3-methyl-1-(tetrahydro-2H-pyran-4-yl)pyrazolo[1,5-c]quinazolin-2(3H)-one] | 87% | 96% | 9.8 nM | 9.5 nM | – | – | – | inhibition at 100 µM ([1]; C 100 μm): 100% |
| Cn1c(=O)c(C2CCOCC2)c2c3cc(-c4ccc(OCCCN5CCCCC5)nc4)ccc3ncn21 [Example 3, 9-(6-(3-(piperidin-1-yl)propoxy)pyridin-3-yl)-3-methyl-1-(tetrahydro-2H-pyran-4-yl)pyrazolo[1,5-c]quinazolin-2(3H)-one] | 93% | 98% | 6.22 nM | 6 nM | 66% | – | – | – |
| CN(C)CCCOc1ccc(-c2ccc3ncn4c(c(C5CCOCC5)c(=O)n4C)c3c2)cc1C(F)(F)F [Example 5, 9-(4-(3-(dimethylamino)propoxy)-3-(trifluoromethyl)phenyl)-3-methyl-1-(tetrahydro-2H-pyran-4-yl)pyrazolo[1,5-c]quinazolin-2(3H)-one] | 93% | 100% | 1.52 nM | 2.38 nM | 61% | – | – | – |
| CN(C)C1CCN(c2ccc(-c3ccc4ncn5c(c(C6CCOCC6)c(=O)n5C)c4c3)cc2F)CC1 [Example 6, 9-(4-(4-(dimethylamino)piperidin-1-yl)-3-fluorophenyl)-3-methyl-1-(tetrahydro-2H-pyran-4-yl)pyrazolo[1,5-c]quinazolin-2(3H)-one] | 94% | 98% | 2.69 nM | 2.71 nM | 57% | – | – | – |
| CN(C)C1CCN(c2ccc(-c3ccc4ncn5c(c(C6CCOCC6)c(=O)n5C)c4c3)cc2Cl)CC1 [Example 7, 9-(3-chloro-4-(4-(dimethylamino)piperidin-1-yl)phenyl)-3-methyl-1-(tetrahydro-2H-pyran-4-yl)pyrazolo[1,5-c]quinazolin-2(3H)-one] | 91% | 96% | 3.16 nM | 3.79 nM | 61% | – | – | – |
| CN(C)C1CCN(c2ccc(-c3ccc4ncn5c(c(C6CCOCC6)c(=O)n5C)c4c3)cc2C(F)(F)F)CC1 [Example 8, 9-(4-(4-(dimethylamino)piperidin-1-yl)-3-(trifluoromethyl)phenyl)-3-methyl-1-(tetrahydro-2H-pyran-4-yl)pyrazolo[1,5-c]quinazolin-2(3H)-one] | 99% | 100% | 2.1 nM | 2.65 nM | 86% | – | – | – |
| CNC1CCN(c2ccc(-c3ccc4ncn5c(c(C6CCOCC6)c(=O)n5C)c4c3)cc2C(F)(F)F)CC1 [Example 10, 9-(4-(4-(methylamino)piperidin-1-yl)-3-(trifluoromethyl)phenyl)-3-methyl-1-(tetrahydro-2H-pyran-4-yl)pyrazolo[1,5-c]quinazolin-2(3H)-one] | 95% | 100% | 1.46 nM | 2.27 nM | 87% | – | – | – |
| CCNC1CCN(c2ccc(-c3ccc4ncn5c(c(C6CCOCC6)c(=O)n5C)c4c3)cc2C(F)(F)F)CC1 [Example 11, 9-(4-(4-(ethylamino)piperidin-1-yl)-3-(trifluoromethyl)phenyl)-3-methyl-1-(tetrahydro-2H-pyran-4-yl)pyrazolo[1,5-c]quinazolin-2(3H)-one] | 95% | 100% | 4.82 nM | 3.55 nM | 66% | – | – | – |
| CC(C)c1c(=O)n(C)n2cnc3ccc(-c4ccc(OCCCN(C)C)nc4)cc3c12 [Example 19, 9-(6-(3-(dimethylamino)propoxy)pyridin-3-yl)-1-isopropyl-3-methylpyrazolo[1,5-c]quinazolin-2(3H)-one] | – | – | – | – | – | 5.67 nM | 5.55 nM | – |
| CC(C)c1c(=O)n(C)n2cnc3ccc(-c4ccc(OCCCN5CCCCC5)nc4)cc3c12 [Example 20, 9-(6-(3-(piperidin-1-yl)propoxy)pyridin-3-yl)-1-isopropyl-3-methyl-pyrazolo[1,5-c]quinazolin-2(3H)-one] | – | – | – | – | – | 3.48 nM | 2.21 nM | – |
| CC(C)c1c(=O)n(C)n2cnc3ccc(-c4ccc(N5CCC(N(C)C)CC5)c(F)c4)cc3c12 [Example 21, 9-(4-(4-(dimethylamino)piperidin-1-yl)-3-fluorophenyl)-1-isopropyl-3-methylpyrazolo[1,5-c]quinazolin-2(3H)-one] | – | – | – | – | – | 10.5 nM | 7.22 nM | – |
| CC(C)c1c(=O)n(C)n2cnc3ccc(-c4ccc(N5CCC(N(C)C)CC5)c(Cl)c4)cc3c12 [Example 22, 9-(3-chloro-4-(4-(dimethylamino)piperidin-1-yl)phenyl)-1-isopropyl-3-methylpyrazolo[1,5-c]quinazolin-2(3H)-one] | – | – | – | – | – | 26.1 nM | 22.9 nM | – |
| CC(C)c1c(=O)n(C)n2cnc3ccc(-c4ccc(N5CCC(N(C)C)CC5)c(C(F)(F)F)c4)cc3c12 [Example 23, 9-(4-(4-(dimethylamino)piperidin-1-yl)-3-(trifluoromethyl)phenyl)-1-isopropyl-3-methylpyrazolo[1,5-c]quinazolin-2(3H)-one] | – | – | – | – | – | 8.49 nM | 6.76 nM | – |
| CC(C)c1c(=O)n(C)n2cnc3ccc(-c4ccc(OCCCN(C)C)c(F)c4)cc3c12 [Example 24, 9-(4-(3-(dimethylamino)propoxy)-3-fluorophenyl)-1-isopropyl-3-methylpyrazolo[1,5-c]quinazolin-2(3H)-one] | – | – | – | – | – | 47.6 nM | 43.8 nM | – |
| CC(C)c1c(=O)n(C)n2cnc3ccc(-c4ccc(OCCCN(C)C)c(C(F)(F)F)c4)cc3c12 [Example 25, 9-(4-(3-(dimethylamino)propoxy)-3-(trifluoromethyl)phenyl)-1-isopropyl-3-methylpyrazolo[1,5-c]quinazolin-2(3H)-one] | – | – | – | – | – | 13.4 nM | 13.5 nM | – |
| CCn1c(=O)c(C2CCOCC2)c2c3cc(-c4ccc(OCCCN(C)C)nc4)ccc3ncn21 [Example 26, 9-(6-(3-(dimethylamino)propoxy)pyridin-3-yl)-3-ethyl-1-(tetrahydro-2H-pyran-4-yl)pyrazolo[1,5-c]quinazolin-2(3H)-one] | 66.5% | – | 142 nM | 123 nM | – | – | – | – |
